Where two headings read alike, the source gives them in different places.
Legend:
[1] = test system: low-threshold calcium channels (LTCC); experiment: Intracellular recording of low-threshold calcium rebound spike in inferior olivary cells of brain slices (LTCC blockage); type: cell-based, guinea pig
bovine platelets = conditions: cited from earlier work
[2] = test system: high-threshold calcium conductance (HTCC); conditions: 10^-4 M butanol; sodium channel blocked by tetrodotoxin
[3] = test system: rat brain synaptic membrane vesicles; conditions: 10^-1 M; cited from earlier work
[4] = in vivo; cited from earlier work
[5] = read-out: Blood level; one or two drinks of an alcohol-containing beverage; cited from earlier work
[6] = test system: synaptosomes isolated from rat brains; conditions: ethanol 2.5×10^-2 -1.5×10^-1 M; cited from earlier work
tremor [7] = conditions: cited from earlier work
tremor [8] = experiment: Harmaline-induced tremor, electromyogram of left platysma muscle; type: in vivo, Sprague-Dawley rats
Method: In order to analyze the effects of LTCC-blocking agents in vivo, octanol was administered to rats. Alcohols were diluted with physiological saline and sonicated to ensure mixing to create a concentration of alcohol around the neurons equivalent to 10^-6 M (at most). The alcohol was administered intraperitoneally at a concentration of to 10 mM. […] (Harmaline is available from Sigma Chemical Co., St. Louis, M.) The thus-induced tremor has a periodicity similar to physiological or enhanced physiological tremor.
Therefore, study of I.O. cells of mammals in which tremor has been induced with harmaline provides an excellent in vivo model for studying tremor response in mammals.
Tremor can be measured by electromyogram conducted according to Buchthal, F., et al., Acta Physio. Scand. 39: 83-104, 1957, incorporated by reference.
The electric activity in the left platysma muscle of 278 to 300 g Sprague-Dawley rats (from Taconic Farms, Germantown, N.Y.) was recorded differentially using two teflon-coated stranded silver wires (2 mm of wire exposed) placed in the belly of the muscle. The electromyogram (emg) was recorded throughout the experiment and the data were analyzed at the following times: (1) before administration of any drugs; (2) after intraperitoneal injection of 15 mg/kg harmaline; and (3) after subsequent intraperitoneal injection of 2 cc of 10 mM 1-octanol (99% octanol sonicated in physiological saline) given to create a concentration of 9.3 micrograms/g of rat body weight or 7×10^-5 M in the vicinity of the neuronal cells (if all the alcohol was to be absorbed, and none metabolized). The emg was smoothed and differentiated (to further decrease the background noise) using a Nicolet Explorer Model 4060 digital oscilloscope (from Nicolet Instrument Corp., Madison, Wis.). This instrument was also used to obtain autocorrelograms of 800-ms sections of the emg's. Autocorrelograms were obtained by superimposing 800-ms sections of the emg signals. The emerging patterns (if any) can be used to determine frequency and amplitude characteristics of the emg that may not be readily discernible from the naked emg signal.

[9] = Solubility in aqueous media; type: physicochemical; conditions: relative to most effective concentration for blocking LTCC
squid axons = conditions: octanol 10^-4 M; cited from earlier work
LTCC = experiment: Voltage clamp study of LTCC in I.O. neurons; type: cell-based, guinea pig; conditions: octanol 10^-6 M; depolarization steps of 5 mV from holding potential -80 mV
From the text: Adult Hartley guinea pigs (400-600 g) from Camm Research Institute, Wayne, N.J. were decapitated, after ether anesthesia, using a small animal guillotine. Immediately thereafter, two longitudinal sections were made along the lateral edge of the squamous portion of the occipital bone. The resulting bone slab was cut transversely, and pulled caudalward to expose the cerebellum and brain stem. […] It was then transected longitudinally in a parasagittal plane and fixed to a Vibratome Model G plate (available from Ted Pella, Inc., Tustin, Calif.) in order to obtain thin longitudinal sections. From a single brain stem, six 300-micron slices could be obtained. Following sectioning, the slices were incubated in Ringer's solution for approximately one hour. The bathing medium was kept at room temperature and a mixture of 95% O2 and 5% CO2 was bubbled into the bath during this period. Brain stem slices were removed from the incubation bath after one hour but could be kept in good condition in the bath for periods of time up to 24 hours. […]
The results presented in this Example were recorded in I.O. neurons from different parts of the nucleus. […] In these experiments, the ionic current across the membrane was measured after a voltage clamp pulse was applied across the membrane. […]

[10] = complete blockage of LTCC, for hexanol through decanol nominal, 10^-6 M at most (not fully soluble)
[11] = harmaline 15 mg/kg i.p., no alcohol
[12] = 2 cc of 10 mM 1-octanol i.p. after harmaline 15 mg/kg i.p.

CCCCO [butanol]
Inhibition of the LTCC or rebound spike [1]: inhibition of the LTCC or rebound spike
Preferred highest molar concentration / operative range for substantial and total blockage of LTCC: To About [1]: ~10^-6
Inhibition of calcium mobilization (bovine platelets; 5×10^-2 M): inhibitors of calcium mobilization
Effect on the HTCC [2]: absence of any effect on the HTCC

CCCCCCCCCCO [decanol]
Preferred highest molar concentration / operative range for substantial and total blockage of LTCC: From About [1, 10]: ~10^-6 M

CCO [ethanol]
Inhibition of calcium influxes [3]: inhibited calcium influxes
Preferred highest molar concentration / operative range for substantial and total blockage of LTCC: From About [1]: ~10^-3
Preferred highest molar concentration / operative range for substantial and total blockage of LTCC: To About [1]: ~10^-4
Intoxicating and addictive properties [4]: well-known
concentration [5]: ~10000 µM
Inhibition of voltage-dependent calcium uptake [6]: inhibited voltage-dependent calcium uptake

COc1ccc2c3c([nH]c2c1)C(C)=NCC3 [harmaline, reference compound]
Induction of tremor in mammals (known) (tremor [7]): known to induce tremor in mammals
Tremor induction (tremor [8]; harmaline 15 mg/kg i.p.): periods of generalized tremor
Degree of autocorrelation of emg (tremor [8]; [11]): high degree of autocorrelation
Dominant frequency of tremor (tremor [8]; [11]): 7.5 Hz

CCCCCCCO [heptanol]
Preferred highest molar concentration / operative range for substantial and total blockage of LTCC: From About [1, 10]: ~10^-6 M

CCCCCCO [hexanol]
Preferred highest molar concentration / operative range for substantial and total blockage of LTCC: From About [1, 10]: ~10^-6 M
Inhibition of calcium mobilization (bovine platelets; 5×10^-3 (unit not given)): inhibitors of calcium mobilization

CCCCCCCCCO [nonanol]
Preferred highest molar concentration / operative range for substantial and total blockage of LTCC: From About [1, 10]: ~10^-6 M

CCCCCCCCO [octanol, 1-octanol]
Blockage of calcium-dependent rebound potentials (LTCC) ([1]; 10^-6 M octanol in bath, sodium spike blocked with 10^-6 M tetrodotoxin): complete blockage of the calcium-dependent rebound potentials
Blockage of the rebound calcium spike following membrane hyperpolarization ([1]; 10^-6 M octanol, hyperpolarizing square current pulse, 10^-6 M tetrodotoxin): blocked
Preferred highest molar concentration / operative range for substantial and total blockage of LTCC: From About [1, 10]: ~10^-6 M
Solubility in aqueous media [9]: corresponds closely to the most effective concentration for blocking the LTCC
Observed intracellular calcium concentration (squid axons): apparent increase in the observed intracellular calcium concentration
Blockage of low-threshold calcium ionic current (LTCC): completely blocked the ionic conductance
Baseline muscle activity (tremor [8]; [12]): reduced below control levels
Dominant frequency of emg (tremor [8]; [12]): 10 Hz
Tremor after harmaline and alcohol (tremor [8]; [12]): the tremor stopped

CCCCCO [pentanol]
Preferred highest molar concentration / operative range for substantial and total blockage of LTCC: From About [1, 10]: ~10^-6 M
